Experiment [1] deals with E. coli. Description: Molecular phenotypic antimicrobial susceptibility test, specimen with two detected pathogens incubated together without isolation. The experiment is classed as cell-based, Escherichia coli. To be noted: E. coli in specimen with two detected pathogens (E. coli and M. morganii) incubated together; for Ct of Sensitive Breakpoint: Ct of controls (average) 15.93; for Molecular Antimicrobial Susceptibility Result: at sensitive breakpoint. The protocol: (§1) Detection of Molecular Phenotypic Antimicrobial Susceptibility. Disclosed herein are the methods for the detection of phenotypic antimicrobial susceptibility via molecular methods. The present invention describes how a specimen 100 with a known microbial load is incubated and then exposed to a panel of antimicrobial agents to determine sensitivity (prevention of growth) or resistance (allowance of growth) to the specific antimicrobial agents tested utilizing molecular methods.
(§2) Sample Collection. Specimens 100 are collected from patients using sterile collection processes that are employed in routine clinical care. Specimens are transported to the testing facility in boric acid preservative. Specimens 100 are subsequently divided into a first sample 104 and a second sample 108.
(§3) Preparation of the Specimens for Testing. The specimens 100 are put through a pathogen identification process using PCR technology (e.g., using the first sample 104). The process for pathogen isolation includes steps of harvesting the pathogen (e.g., via centrifugation), isolating pathogen DNA via a DNA isolation and/or purification kit, and performing PCR on the pathogen DNA via PCR components (e.g., primers, enzymes, buffers) as would be known to the skilled artisan. Simultaneously, an additional aliquot of the same specimen (e.g., the second sample 108) is placed with liquid culture media and incubated for 4-6 hours. This aliquot is used for antimicrobial susceptibility testing if indicated based on the pathogen detection results. After pathogen identification is completed and if more than 10,000 cells/mL of bacteria (e.g., eligible bacteria) are detected in the source specimen, the second sample 108 then enters the antimicrobial susceptibility phase of testing. Specimens 100 with lower pathogen loads could also be utilized in the antibiotic susceptibility phase of testing with or without a longer incubation period.
(§4) Preparation of Antimicrobial Susceptibility Testing Plates. Antimicrobial solutions are prepared at known concentrations. The specific antimicrobials and their concentrations are selected based on the pathogen of interest and the described antimicrobial resistance breakpoints for that specimen pathogen and antimicrobial combination. These antimicrobials have been selected based on those commonly utilized by healthcare providers in routine clinical care for the specific type of suspected infection. The number and types of antimicrobials utilized can be customized based on the infection source, pathogen detected, patient-specific factors such as allergies or other health conditions (e.g., chronic kidney disease or concurrent medication use), or healthcare provider preferences such as antimicrobial availability or cost.
(§5) The antimicrobial solutions are prepared in liquid culture media (such as Muller Hinton Broth) to achieve the desired antimicrobial concentration and are then stored at −80° C. until use. For a given specimen, each antimicrobial is tested at a single or multiple antimicrobial concentration(s) which is its established breakpoints for sensitivity. The antimicrobial solutions are prepared and plated out for each specific pathogen. This allows ease of use on the day of testing after defrosting the plate 112. Table 1, which illustrates the results of molecular phenotypic antimicrobial susceptibility testing when more than one organism is present in the source specimen, provides an example of an antimicrobial plate 112 prepared for this purpose. Of note, control wells containing only culture media are present on all plates 112. This allows for evaluation of pathogen load when no antimicrobial is present.
(§6) Specimen Exposure to Antimicrobial Agents. The 1 mL aliquot of the specimen 100 previously mixed with culture media and incubated is obtained. Using optical density measurements as a guide, the specimen 100 is diluted to 0.5 McFarland. […]

Experiment [2] concerns E. coli. As to the kind of experiment: Molecular phenotypic antimicrobial susceptibility test with direct PCR (no extraction DNA purification step). In kind it is cell-based, Escherichia coli. The procedure:
as §1, §2, §3, §4, §5, §6

Where [3] appears, read: E. coli isolate JJ1887, direct PCR, Ct at control (average) 12.832.
[4] abbreviates: E. coli isolate JJ1887, direct PCR, at sensitive breakpoint.
Setting [5] is: E. coli #1 - WDCM 00090 - 6.2×E3, specimen with <10,000 cells/mL, direct PCR after 16 hours of incubation.
The mark [6] stands for this setting: E. coli #1 - WDCM 00090 - 6.2×E3, specimen with <10,000 cells/mL, direct PCR after 16 hours of incubation, Ct at control 13.787.
Where [7] appears, read: E. coli #2 - WDCM 00090 - 6.2×E3, specimen with <10,000 cells/mL, direct PCR after 16 hours of incubation.
The mark [8] stands for this setting: E. coli #2 - WDCM 00090 - 6.2×E3, specimen with <10,000 cells/mL, direct PCR after 16 hours of incubation, Ct at control 13.46.

On to `C[C@H]1COc2c(N3CCN(C)CC3)c(F)cc3c(=O)c(C(=O)O)cn1c23` [Levofloxacin], for which, in the experiment with E. coli [1], the “Ct of Sensitive Breakpoint” value was determined as 32.72 and the “Molecular Antimicrobial Susceptibility Result” value is given as “Sensitive (Antimicrobial wells with pathogen load detected below the control wells (typically >2 cycle thresholds later) may be reported as Sensitive)”. In addition, the “Ct at Sensitive Breakpoint” value in the experiment with E. coli [2] (setting [3]) is 12.562. In addition, the “Molecular Antimicrobial Susceptibility Result” value in the experiment with E. coli [2] (setting [4]) is given as “Resistant”.
As to `O=C1CN(/N=C/c2ccc([N+](=O)[O-])o2)C(=O)N1` [Nitrofurantoin], the “Ct of Sensitive Breakpoint” value in the experiment with E. coli [1] was 27.36. The “Molecular Antimicrobial Susceptibility Result” value with E. coli [1], in the experiment with E. coli [2] (setting [5]), in the experiment on E. coli [2] (setting [7]) and in the experiment on E. coli [2] (setting [4]) was “Sensitive (Antimicrobial wells with pathogen load detected below the control wells (typically >2 cycle thresholds later) may be reported as Sensitive)” throughout. Moreover, the “Ct at Sensitive Breakpoint” value in the experiment with E. coli [2] (setting [6]) is given as 27.90; in the experiment with E. coli [2] (setting [8]), 28.97; in the experiment with E. coli [2] (setting [3]), 26.305.
In the case of `CO/N=C(\C(=O)N[C@@H]1C(=O)N2C(C(=O)[O-])=C(C[N+]3(C)CCCC3)CS[C@H]12)c1csc(N)n1` [Cefepime], in the experiment on E. coli [1], the “Ct of Sensitive Breakpoint” value is reported as 26.80. Besides, the “Molecular Antimicrobial Susceptibility Result” value in the experiment with E. coli [1] was “Sensitive (Antimicrobial wells with pathogen load detected below the control wells (typically >2 cycle thresholds later) may be reported as Sensitive)”; in the experiment with E. coli [2] (setting [4]) it was “Resistant”. Besides, in the experiment on E. coli [2] (setting [3]), the “Ct at Sensitive Breakpoint” value is given as 12.796.
For the molecule Gentamicin, the “Ct of Sensitive Breakpoint” value in the experiment on E. coli [1] was found to be 17.37. Also, the “Molecular Antimicrobial Susceptibility Result” value in the experiment on E. coli [1] is on record as “Resistant”; with E. coli [2] (setting [5]), “Sensitive (Antimicrobial wells with pathogen load detected below the control wells (typically >2 cycle thresholds later) may be reported as Sensitive)”; with E. coli [2] (setting [7]) it was “Sensitive (Antimicrobial wells with pathogen load detected below the control wells (typically >2 cycle thresholds later) may be reported as Sensitive)”; in the experiment with E. coli [2] (setting [4]), “Resistant”. Further, the “Ct at Sensitive Breakpoint” value was 28.57 in the experiment on E. coli [2] (setting [6]), 28.70 in the experiment on E. coli [2] (setting [8]) and 12.308 in the experiment on E. coli [2] (setting [3]).
In the case of `O=C(O)c1cn(C2CC2)c2cc(N3CCNCC3)c(F)cc2c1=O` [Ciprofloxacin], the “Ct of Sensitive Breakpoint” value in the experiment with E. coli [1] is 31.81. Moreover, the “Molecular Antimicrobial Susceptibility Result” value in the experiment with E. coli [1] was “Sensitive (Antimicrobial wells with pathogen load detected below the control wells (typically >2 cycle thresholds later) may be reported as Sensitive)”; with E. coli [2] (setting [4]), “Resistant”. Further, the “Ct at Sensitive Breakpoint” value with E. coli [2] (setting [3]) was determined as 12.215.
Regarding `CO[C@@]1(NC(=O)Cc2cccs2)C(=O)N2C(C(=O)O)=C(COC(N)=O)CS[C@@H]21` [Cefoxitin], in the experiment on E. coli [1], the “Ct of Sensitive Breakpoint” value is given as 18.30 and the “Molecular Antimicrobial Susceptibility Result” value is recorded as “Sensitive (Antimicrobial wells with pathogen load detected below the control wells (typically >2 cycle thresholds later) may be reported as Sensitive)”.
In the case of Ampicillin/Sulbactam, in the experiment with E. coli [1], the “Ct of Sensitive Breakpoint” value came out at 14.58. Further, the “Molecular Antimicrobial Susceptibility Result” value in the experiment with E. coli [1] and with E. coli [2] (setting [4]) was “Resistant” throughout. Besides, the “Ct at Sensitive Breakpoint” value in the experiment with E. coli [2] (setting [3]) was 12.693.
With `Cc1nnc(SCC2=C(C(=O)O)N3C(=O)[C@@H](NC(=O)Cn4cnnn4)[C@H]3SC2)s1` [Cefazolin], the “Ct of Sensitive Breakpoint” value in the experiment with E. coli [1] stood at 15.46. Moreover, the “Molecular Antimicrobial Susceptibility Result” value in the experiment on E. coli [1] was “Resistant”; in the experiment with E. coli [2] (setting [5]), “Sensitive (Antimicrobial wells with pathogen load detected below the control wells (typically >2 cycle thresholds later) may be reported as Sensitive)”; in the experiment on E. coli [2] (setting [7]), “Sensitive (Antimicrobial wells with pathogen load detected below the control wells (typically >2 cycle thresholds later) may be reported as Sensitive)”; with E. coli [2] (setting [4]) it was “Resistant”. Moreover, the “Ct at Sensitive Breakpoint” value was determined as 25.72 with E. coli [2] (setting [6]), 26.56 with E. coli [2] (setting [8]) and 12.804 with E. coli [2] (setting [3]).
Piperacillin/Tazobactam: the “Ct of Sensitive Breakpoint” value in the experiment on E. coli [1] stood at 27.51. The “Molecular Antimicrobial Susceptibility Result” value with E. coli [1], in the experiment with E. coli [2] (setting [5]), in the experiment on E. coli [2] (setting [7]) and with E. coli [2] (setting [4]) was “Sensitive (Antimicrobial wells with pathogen load detected below the control wells (typically >2 cycle thresholds later) may be reported as Sensitive)” in each case. Also, the “Ct at Sensitive Breakpoint” value with E. coli [2] (setting [6]) turned out to be 26.78; in the experiment on E. coli [2] (setting [8]), 27.46; with E. coli [2] (setting [3]), 23.923.
Consider `CC1(C)S[C@@H]2[C@H](NC(=O)[C@H](N)c3ccccc3)C(=O)N2[C@H]1C(=O)O` [Ampicillin], for which the “Ct of Sensitive Breakpoint” value in the experiment on E. coli [1] is recorded as 15.14. The “Molecular Antimicrobial Susceptibility Result” value in the experiment on E. coli [1] is reported as “Resistant”; in the experiment on E. coli [2] (setting [5]) it was “Sensitive (Antimicrobial wells with pathogen load detected below the control wells (typically >2 cycle thresholds later) may be reported as Sensitive)”; in the experiment with E. coli [2] (setting [7]) it was “Sensitive (Antimicrobial wells with pathogen load detected below the control wells (typically >2 cycle thresholds later) may be reported as Sensitive)”; with E. coli [2] (setting [4]), “Resistant”. Moreover, the “Ct at Sensitive Breakpoint” value turned out to be 25.93 with E. coli [2] (setting [6]), 26.22 in the experiment on E. coli [2] (setting [8]) and 12.265 in the experiment with E. coli [2] (setting [3]).
For `CO/N=C(\C(=O)N[C@@H]1C(=O)N2C(C(=O)O)=C(CSc3nc(=O)c(=O)[nH]n3C)CS[C@H]12)c1csc(N)n1` [Ceftriaxone], the “Ct of Sensitive Breakpoint” value with E. coli [1] was 28.57. Besides, the “Molecular Antimicrobial Susceptibility Result” value is reported as “Sensitive (Antimicrobial wells with pathogen load detected below the control wells (typically >2 cycle thresholds later) may be reported as Sensitive)” in the experiment with E. coli [1], “Sensitive (Antimicrobial wells with pathogen load detected below the control wells (typically >2 cycle thresholds later) may be reported as Sensitive)” in the experiment with E. coli [2] (setting [5]), “Sensitive (Antimicrobial wells with pathogen load detected below the control wells (typically >2 cycle thresholds later) may be reported as Sensitive)” with E. coli [2] (setting [7]) and “Resistant” in the experiment with E. coli [2] (setting [4]). The results for the “Ct at Sensitive Breakpoint” value with E. coli [2] (setting [6]), in the experiment on E. coli [2] (setting [8]) and in the experiment with E. coli [2] (setting [3]) were 26.31, 27.18 and 12.353, respectively.
Turning to `CN(C)[C@@H]1C(O)=C(C(N)=O)C(=O)[C@@]2(O)C(O)=C3C(=O)c4c(O)cccc4[C@@](C)(O)[C@H]3C[C@@H]12` [Tetracycline], in the experiment with E. coli [1], the “Ct of Sensitive Breakpoint” value came out at 14.55 and the “Molecular Antimicrobial Susceptibility Result” value is recorded as “Resistant”.

For the origin of these results see patent publication US20250290117A1, “MOLECULAR PHENOTYPIC ANTIMICROBIAL SUSCEPTIBILITY TESTING” (priority 2024, published 2025).
